The term Kd denotes the concentration at which binding is half-saturated.

Molecules are shown by their SMILES. Positions count from the first letter of the chain named.

In one assay the target is T1, 5-HT3A receptor C290A (Mus musculus, UniProt P23979, C317A).
T1 sequence (P23979 24-489 C317A): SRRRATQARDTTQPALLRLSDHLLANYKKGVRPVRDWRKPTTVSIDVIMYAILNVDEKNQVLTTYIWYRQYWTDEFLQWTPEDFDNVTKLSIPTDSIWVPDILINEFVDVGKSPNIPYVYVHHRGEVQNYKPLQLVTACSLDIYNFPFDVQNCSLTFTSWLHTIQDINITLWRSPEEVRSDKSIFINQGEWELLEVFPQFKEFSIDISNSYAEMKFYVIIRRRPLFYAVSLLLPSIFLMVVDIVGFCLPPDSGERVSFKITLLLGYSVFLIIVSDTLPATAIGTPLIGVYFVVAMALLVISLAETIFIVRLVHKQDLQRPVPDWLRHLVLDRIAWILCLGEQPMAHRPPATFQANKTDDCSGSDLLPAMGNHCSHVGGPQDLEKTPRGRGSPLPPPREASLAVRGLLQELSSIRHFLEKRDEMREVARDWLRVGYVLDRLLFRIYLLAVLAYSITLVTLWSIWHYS
In words: [3H]GR65630 saturation binding, C290A receptor, HEK293 cell membranes. Set-up: expressed in transfected cells; host or cells: HEK293. The settings on record: mean and SEM, n ≥ 3. As for the experimental part: (§1) The mouse 5-HT3A cDNA (Q6J1J7) in pcDNA3.1 (for HEK cell transfection) or pGEMHE (for RNA production) was modified by QuikChange site-directed mutagenesis (Agilent Technologies) to create point mutants (verified by sequencing).
(§2) Human embryonic kidney (HEK) 293 cells were maintained at 37 °C at 5% CO2 in a humidified atmosphere, in Dulbecco's Modified Eagle's Medium/Nutrient Mix F12 (1:1) (Invitrogen, Paisley, UK) with GlutaMAX^TM and 10% fetal bovine serum (GE Healthcare) (DMEM/FBS) and passaged when confluent. Five micrograms of WT or mutant 5-HT3A DNA and 30 μl polyethyleneamine (Polysciences) incubated for 10 min in 1 mL DMEM was added to 60% confluent HEK293 cells for transfection, and cells grown for 2 days before assays.
(§3) This was performed as previously described. Lummis and Thompson ([2013]) Briefly receptors in crude HEK293 cell membranes were labeled with the 5-HT3R antagonist [^3H]GR65630 by incubation in 0.5 mL 10 mM HEPES buffer pH 7.5 for 1 h on ice, using 1 μM quipazine to determine non-specific binding. Data were analyzed in GraphPad Prism by iterative curve fitting.

The target in the next assay is T2, 5-HT3A receptor M235A (Mus musculus, UniProt P23979, M262A).
T2 construct: expressed in transfected cells; host or cells: HEK293
T2 sequence (P23979 24-489 M262A): T1 sequence (P23979 24-489 C317A) with M239A, A294C
In words: [3H]GR65630 saturation binding, M235A receptor, HEK293 cell membranes. The note with it: mean and SEM, n ≥ 3. As for the experimental part:
as §1, §2, §3

The target in another assay is T3, WT 5-HT3A receptor (Mus musculus, UniProt P23979).
T3 construct: expressed in transfected cells; host or cells: HEK293
T3 sequence (P23979 24-483 isoform P23979-2 limits assumed): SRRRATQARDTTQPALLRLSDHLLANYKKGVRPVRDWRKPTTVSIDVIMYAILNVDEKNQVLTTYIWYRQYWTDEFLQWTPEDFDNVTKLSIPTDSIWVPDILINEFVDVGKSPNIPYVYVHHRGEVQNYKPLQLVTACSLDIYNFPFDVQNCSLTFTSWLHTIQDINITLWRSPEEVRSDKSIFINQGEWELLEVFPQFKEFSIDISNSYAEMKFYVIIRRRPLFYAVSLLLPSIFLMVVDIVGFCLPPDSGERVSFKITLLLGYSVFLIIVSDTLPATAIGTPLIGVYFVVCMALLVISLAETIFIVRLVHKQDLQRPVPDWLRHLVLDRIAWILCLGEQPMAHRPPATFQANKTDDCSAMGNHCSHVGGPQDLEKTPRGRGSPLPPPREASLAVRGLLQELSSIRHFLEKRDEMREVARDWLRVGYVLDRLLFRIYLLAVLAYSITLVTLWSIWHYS
In words: [3H]GR65630 saturation binding, WT receptor, HEK293 cell membranes. The note with it: mean and SEM, n ≥ 3. As for the experimental part:
as §1, §2, §3

The next assay has as its target T4, 5-HT3A receptor D238A (Mus musculus, UniProt P23979, D265A).
T4 sequence (P23979 24-489 D265A): T1 sequence (P23979 24-489 C317A) with D242A, A294C
In words: [3H]GR65630 saturation binding, D238A receptor, HEK293 cell membranes. Set-up: expressed in transfected cells; host or cells: HEK293. The note with it: mean and SEM, n ≥ 3. As for the experimental part: as §1, §2, §3

The next assay addresses T5, 5-HT3A receptor Y441A (Mus musculus, UniProt P23979, Y468A).
T5 sequence (P23979 24-489 Y468A): T1 sequence (P23979 24-489 C317A) with A294C, Y445A
More on the design: expressed in transfected cells; method as in Mesoy et al., [2019]. The settings on record: HEK293 cells, ref Mesoy et al., [2019]; cited from earlier work.

The next assay has as its target T6, 5-HT3A receptor K255L (Mus musculus, UniProt P23979, K282L).
T6 construct: expressed in transfected cells
T6 sequence (P23979 24-489 K282L): T1 sequence (P23979 24-489 C317A) with K259L, A294C
Nature of the assay: [3H]GR65630 saturation binding, K255L receptor, HEK293 cell membranes. The settings on record: mean and SEM, n ≥ 3. As for the experimental part: as §1, §2, §3

Turning to `Cc1[nH]cnc1CCC(=O)c1cn(C)c2ccccc12` [[^3H]GR65630], the Bmax on 5-HT3A receptor C290A is given as 3.8 ± 0.3 pmol/mg protein; at 5-HT3A receptor M235A it was 2.4 ± 0.4 pmol/mg protein; on WT 5-HT3A receptor, 1.2 ± 0.8 pmol/mg protein; at 5-HT3A receptor D238A, 1.8 ± 0.4 pmol/mg protein; on 5-HT3A receptor K255L it was 0.4 ± 0.2 pmol/mg protein. Besides, the Kd at 5-HT3A receptor C290A is 0.85 ± 0.1 nM; on 5-HT3A receptor M235A, 0.7 ± 0.09 nM; at WT 5-HT3A receptor it was 0.18 ± 0.03 nM; on 5-HT3A receptor D238A it was 0.5 ± 0.07 nM; at 5-HT3A receptor K255L, 0.17 ± 0.02 nM. Moreover, at 5-HT3A receptor Y441A, the “level of [3H]GR65630 binding sites” value is given as “high levels”.
